Measurements from patent US20250215039A1, “NUCLEOSIDES FOR TREATING CANCER” (PRIMEFOUR THERAPEUTICS, INC., priority 2022, published 2025).
Where two headings read alike, the source gives them in different places.

How the values were obtained:
cancer cell lines = assay: Cancer cell proliferation activity (CellTiterGlo, 72 h); type: cell-based; conditions: for IC50: 72 h, read-out: IC50
Outline: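 Cells seeded overnight at 37 °C, then dosed with compound at 0.1% final DMSO and incubated 72 h at 37 °C (5% or 10% CO2 by medium).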

[1] = target: human cytidine deaminase (CDA) (Homo sapiens, UniProt P32320); assay: Metabolism by human cytidine deaminase (CDA), substrate absorbance at 290 nm; conditions: 12 nM CDA, 50 and 200 uM substrate, 37° C., pH 7.5; figure legends FIG. 4-9
Sequence of human cytidine deaminase (CDA) (P32320 whole entry): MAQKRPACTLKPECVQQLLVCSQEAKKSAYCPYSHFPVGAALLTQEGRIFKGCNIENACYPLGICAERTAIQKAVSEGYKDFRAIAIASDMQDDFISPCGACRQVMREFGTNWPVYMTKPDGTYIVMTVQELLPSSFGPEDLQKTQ

Structure (SMILES): C[C@]1(CO)O[C@@H](n2cc(F)c(N)nc2=O)C[C@@H]1O [Cpd. No. 4, 4-amino-5-fluoro-1-((2R,4S,5R)-4-hydroxy-5-(hydroxymethyl)-5-methyltetrahydrofuran-2-yl)pyrimidin-2(1H)-one]
- IC50 (cancer cell lines; 5637 cell line (bladder)): 30 nM
- IC50 (cancer cell lines; CLS439 cell line (bladder)): 17600 nM
- IC50 (cancer cell lines; HS729 cell line (muscle)): 1410 nM
- IC50 (cancer cell lines; JAR cell line (placenta)): > 50000 nM
- IC50 (cancer cell lines; U20S cell line, bone): > 50000 nM
- IC50 (cancer cell lines; Homo sapiens, 22Rv1, 72 h, 22RV1 cell line (prostate)): 400 nM
- IC50 (cancer cell lines; Homo sapiens, 786-0, 72 h, 786O cell line (kidney)): > 50000 nM
- IC50 (cancer cell lines; Homo sapiens, A204, 72 h, A204 cell line (muscle)): 140 nM
- IC50 (cancer cell lines; Homo sapiens, A549, 72 h, A549 cell line, lung): 240 nM
- IC50 (cancer cell lines; Homo sapiens, A673, 72 h, A673 cell line (bone)): 510 nM
- IC50 (cancer cell lines; Homo sapiens, A2780, 72 h, A2780 cell line (ovary)): 680 nM
- IC50 (cancer cell lines; Homo sapiens, A-375, 72 h, A375 cell line (skin)): 730 nM
- IC50 (cancer cell lines; Homo sapiens, A-431, 72 h, A431 cell line (skin)): 40 nM
- IC50 (cancer cell lines; Homo sapiens, ACHN, ACHN cell line (kidney)): 50 nM
- IC50 (cancer cell lines; Homo sapiens, ASPC1, 72 h, ASPC1 cell line (pancreas)): 10 nM
- IC50 (cancer cell lines; Homo sapiens, BT-20, 72 h, BT20 cell line (breast)): > 50000 nM
- IC50 (cancer cell lines; Homo sapiens, BXPC-3, 72 h, BXPC3 cell line (pancreas)): 10 nM
- IC50 (cancer cell lines; Homo sapiens, C-33-A, C33A cell line, endometrial): 130 nM
- IC50 (cancer cell lines; Homo sapiens, CAKI-1, 72 h, CAKI1 cell line (kidney)): 400 nM
- IC50 (cancer cell lines; Homo sapiens, COLO 205, 72 h, COLO205 cell line (colon)): 60 nM
- IC50 (cancer cell lines; Homo sapiens, COLO-678, 72 h, COLO678 cell line (colon)): > 50000 nM
- IC50 (cancer cell lines; Homo sapiens, Ca-Ski, CASKI cell line, endometrial): 6170 nM
- IC50 (cancer cell lines; Homo sapiens, Caco-2, 72 h, CACO2 cell line (colon)): > 50000 nM
- IC50 (cancer cell lines; Homo sapiens, Calu-6, 72 h, CALU6 cell line (lung)): 250 nM
- IC50 (cancer cell lines; Homo sapiens, DLD-1, 72 h, DLD1 cell line (colon)): 3660 nM
- IC50 (cancer cell lines; Homo sapiens, DU-145, 72 h, DU145 cell line (prostate)): 1340 nM
- IC50 (cancer cell lines; Homo sapiens, EFO-21, 72 h, EFO21 cell line (ovary)): 3620 nM
- IC50 (cancer cell lines; Homo sapiens, EJ-28, 72 h, EJ28 cell line (bladder)): 190 nM
- IC50 (cancer cell lines; Homo sapiens, Granta-519, 72 h, GRANTA-519 cell line (hematological)): 30 nM
- IC50 (cancer cell lines; Homo sapiens, HCT-15, 72 h, HCT15 cell line (colon)): 1580 nM
- IC50 (cancer cell lines; Homo sapiens, HCT-116, 72 h, HCT116 cell line (colon)): 1180 nM
- IC50 (cancer cell lines; Homo sapiens, HEK293, 72 h, HEK293 cell line (kidney)): > 50000 nM
- IC50 (cancer cell lines; Homo sapiens, HL-60, 72 h, HL-60 cell line (hematological)): 810 nM
- IC50 (cancer cell lines; Homo sapiens, HT-29, 72 h, HT29 cell line (colon)): 160 nM
- IC50 (cancer cell lines; Homo sapiens, HT-1080, 72 h, HT1080 cell line (connective tissue)): 190 nM
- IC50 (cancer cell lines; Homo sapiens, HeLa, HELA cell line, endometrial): > 50000 nM
- IC50 (cancer cell lines; Homo sapiens, HepG2, 72 h, HEPG2 cell line (liver)): 540 nM
- IC50 (cancer cell lines; Homo sapiens, Hs-578T, HS578T cell line, breast): > 50000 nM
- IC50 (cancer cell lines; Homo sapiens, IGROV-1, 72 h, IGROV1 cell line (ovary)): 1650 nM
- IC50 (cancer cell lines; Homo sapiens, IMR-90, 72 h, IMR90 cell line, lung): > 50000 nM
- IC50 (cancer cell lines; Homo sapiens, J82, 72 h, J82 cell line (bladder)): 1080 nM
- IC50 (cancer cell lines; Homo sapiens, JEG-3, 72 h, JEG3 cell line (placenta)): 100 nM
- IC50 (cancer cell lines; Homo sapiens, JIMT-1, 72 h, JIMT1 cell line (breast)): 890 nM
- IC50 (cancer cell lines; Homo sapiens, K562, 72 h, K-562 cell line (hematological)): > 50000 nM
- IC50 (cancer cell lines; Homo sapiens, Kasumi 1, 72 h, KASUMI-1 cell line (hematological)): 400 nM
- IC50 (cancer cell lines; Homo sapiens, L-363, 72 h, L-363 cell line (hematological)): > 50000 nM
- IC50 (cancer cell lines; Homo sapiens, LoVo, LOVO cell line (colon)): 30 nM
- IC50 (cancer cell lines; Homo sapiens, MCF7, 72 h, MCF7 cell line (breast)): 1760 nM
- IC50 (cancer cell lines; Homo sapiens, MDA-MB-231, 72 h, MDAMB231 cell line (breast)): 370 nM
- IC50 (cancer cell lines; Homo sapiens, MDA-MB-435, 72 h, MDAMB435 cell line (skin)): 2520 nM
- IC50 (cancer cell lines; Homo sapiens, MDA-MB-436, 72 h, MDAMB436 cell line (breast)): 140 nM
- IC50 (cancer cell lines; Homo sapiens, MDA-MB-468, 72 h, MDAMB468 cell line (breast)): 770 nM
- IC50 (cancer cell lines; Homo sapiens, MG-63, 72 h, MG63 cell line (bone)): 680 nM
- IC50 (cancer cell lines; Homo sapiens, MHH-ES-1, 72 h, MHHES1 cell line (bone)): 1930 nM
- IC50 (cancer cell lines; Homo sapiens, MIA PaCa-2, 72 h, MIAPACA2 cell line (pancreas)): > 50000 nM
- IC50 (cancer cell lines; Homo sapiens, MINO, MINO cell line (hematological)): 10 nM
- IC50 (cancer cell lines; Homo sapiens, MV4-11, 72 h, MV4-11 cell line (hematological)): 140 nM
- IC50 (cancer cell lines; Homo sapiens, NCI-H23, 72 h, NCI-H23 cell line (lung)): 980 nM
- IC50 (cancer cell lines; Homo sapiens, NCI-H82, 72 h, NCIH82 cell line (lung)): 390 nM
- IC50 (cancer cell lines; Homo sapiens, NCI-H292, 72 h, NCIH292 cell line (lung)): > 50000 nM
- IC50 (cancer cell lines; Homo sapiens, NCI-H460, 72 h, NCIH460 cell line (lung)): 200 nM
- IC50 (cancer cell lines; Homo sapiens, OVCAR-3, 72 h, OVCAR3 cell line (ovary)): 3090 nM
- IC50 (cancer cell lines; Homo sapiens, OVCAR-4, 72 h, OVCAR4 cell line (ovary)): > 50000 nM
- IC50 (cancer cell lines; Homo sapiens, PANC-1, 72 h, PANC1 cell line (pancreas)): 1620 nM
- IC50 (cancer cell lines; Homo sapiens, PC-3, 72 h, PC3 cell line (prostate)): 2600 nM
- IC50 (cancer cell lines; Homo sapiens, PLC-PRF-5, 72 h, PLCPRF5 cell line (liver)): > 50000 nM
- IC50 (cancer cell lines; Homo sapiens, Panc1005, 72 h, PANC1005 cell line (pancreas)): > 50000 nM
- IC50 (cancer cell lines; Homo sapiens, RD, RD cell line (muscle)): 420 nM
- IC50 (cancer cell lines; Homo sapiens, Ramos, RAMOS cell line (hematological)): 160 nM
- IC50 (cancer cell lines; Homo sapiens, SAOS-2, 72 h, SAOS2 cell line (bone)): 90 nM
- IC50 (cancer cell lines; Homo sapiens, SF-268, 72 h, SF268 cell line (brain)): 220 nM
- IC50 (cancer cell lines; Homo sapiens, SF-295, 72 h, SF295 cell line (brain)): 3900 nM
- IC50 (cancer cell lines; Homo sapiens, SK-BR-3, 72 h, SKBR3 cell line (breast)): 30 nM
- IC50 (cancer cell lines; Homo sapiens, SK-HEP1, 72 h, SKHEP1 cell line (liver)): 770 nM
- IC50 (cancer cell lines; Homo sapiens, SK-LMS-1, 72 h, SKLMS1 cell line (uterus)): 1150 nM
- IC50 (cancer cell lines; Homo sapiens, SK-MEL-5, 72 h, SKMEL5 cell line, skin): > 50000 nM
- IC50 (cancer cell lines; Homo sapiens, SK-MEL-28, 72 h, SKMEL28 cell line (skin)): 2900 nM
- IC50 (cancer cell lines; Homo sapiens, SK-N-AS, SKNAS cell line (brain)): > 50000 nM
- IC50 (cancer cell lines; Homo sapiens, SK-N-SH, SKNSH cell line (brain)): > 50000 nM
- IC50 (cancer cell lines; Homo sapiens, SK-OV-3, 72 h, SKOV3 cell line (ovary)): 410 nM
- IC50 (cancer cell lines; Homo sapiens, SNB-75, 72 h, SNB75 cell line (brain)): 2820 nM
- IC50 (cancer cell lines; Homo sapiens, SU-DHL10, 72 h, SU-DHL-10 cell line (hematological)): 330 nM
- IC50 (cancer cell lines; Homo sapiens, SU-DHL-6, 72 h, SU-DHL-6 cell line (hematological)): 450 nM
- IC50 (cancer cell lines; Homo sapiens, SW-620, 72 h, SW620 cell line (colon)): 240 nM
- IC50 (cancer cell lines; Homo sapiens, T-24, 72 h, T24 cell line (bladder)): 400 nM
- IC50 (cancer cell lines; Homo sapiens, TE-671, 72 h, TE671 cell line (muscle)): 170 nM
- IC50 (cancer cell lines; Homo sapiens, THP-1, 72 h, THP-1 cell line (hematological)): 2140 nM
- IC50 (cancer cell lines; Homo sapiens, U-87 MG, U87MG cell line (brain)): 1870 nM
- IC50 (cancer cell lines; Homo sapiens, UMUC3, 72 h, UMUC3 cell line (bladder)): 1340 nM
- IC50 (cancer cell lines; Homo sapiens, UO-31, 72 h, UO31 cell line (kidney)): > 50000 nM
- IC50 (cancer cell lines; Homo sapiens, WSU-NHL, WSU-NHL cell line (hematological)): 380 nM
- IC50 (cancer cell lines; MT-3, 72 h, MT3 cell line (breast)): 60 nM
- IC50 (cancer cell lines; NCI-H358M, NCIH358M cell line (lung)): 70 nM
- IC50 (cancer cell lines; PBMC, PBMC (hematological)): 700 nM
- IC50 (cancer cell lines; RD-ES, RDES cell line (bone)): 6010 nM
- cytotoxicity against a panel of cell lines (waterfall plot) (cancer cell lines; panel of cancer and non-cancer cell lines, figure legends FIG. 1-3): selectively cytotoxic in cancer cell lines with high DDR activity
- metabolism (deamination) by human CDA (line graph) [1]: more stable than cytidine and gemcitabine
